Measured values as given in patent US8946286B2, “Organic amine salts of aminobenzoic acid derivatives and method for producing same” (Nissan Chemical Industries, Ltd., priority 2010, dated 2015).

Legend:
[1] = Initial values of TG loss and related substances before treatment; assay type: physicochemical; settings: initial value before treatment; for Related substances (%): HPLC, sum of area percentages for analogues; for TG loss (%): TG room temperature to 105° C.
Procedure: (§1) Related substance increase (%)
(§2) Each sample was analyzed by high performance liquid chromatography before and after treatment, and the sum of area percentages for analogues in each sample were calculated. • Column: L-column ODS (Chemicals Evaluation and Research Institute, Japan inner diameter 4.6 mm, length 250 mm) • Detector: UV absorptiometer (wavelength; […]) • Column temperature: 40° C. • Flow rate: 1.0 mL/min • Injection volume: 10 μL • Mobile phase: (a) 0.01 M ammonium formate buffer (pH 3.0) • (b) acetonitrile Measurements were carried out with a gradient between the above (a) and (b) solutions.
(§3) About 5 mg of each sample was weighed out before and after treatment and put in an aluminum pan, and TG measurements were performed with the pan left open. The rate of TG loss of each sample was calculated in percentages (%). The measuring conditions are shown below.
(§4) Measuring Conditions; • Instrument:TG8120 (Rigaku Corporation) • Measuring range: room temperature to 105° C. • Heating rate: 5° C./min • Atmosphere: air 50 mL/min

Photostability test = assay type: physicochemical; settings: 25° C./60% RH, vessel left open, light of 200 W·hr·m^2 for 57 hours
Procedure: (§5) In the following Assay Examples 2 to 4, the stability of the ethanolamine salt (1), tromethamine salt (2), choline salt (3) and potassium salt (4) of 3-{[((2E)-2-{1-[5-(4-t-butylphenyl)-4-hydroxy-3-thienyl]ethylidene}hydrazino)carbonothioyl]amino}benzoic acid to temperature, humidity and light was evaluated, by related substance increase (%), weight change (%) or TG loss change (%) through appropriate selection.
as §1, §2
(§6) Each sample was weighed before and after treatment, and weight gain was calculated in percentages from the difference in weight. The magnitude of weight change during treatment is an indication of stability of a compound. TG loss change (%);
as §3, §4
(§7) An increase in TG loss from the initial value indicates possibility of moisture absorption and degradation of a compound. Therefore, the magnitude of change in TG loss is an indication of stability of a compound.
The photostability of the ethanolamine salt (1), tromethamine salt (2), choline salt (3) and potassium salt (4) of 3-{[((2E)-2-{1-[5-(4-t-butylphenyl)-4-hydroxy-3-thienyl]ethylidene}hydrazino)carbonothioyl]amino}benzoic acid was evaluated as follows.
About 1 g of each sample was put in a transparent glass vessel at 25° C./60% RH (relative humidity) with the vessel left open and irradiated with light of 200 W·hr·m^2 for 57 hours. […], the sample was withdrawn, and the related substance increase (%), weight change (%) and TG loss change (%) were evaluated.

Hygrostability test = assay type: physicochemical; settings: 25° C./90% RH for 2 weeks, vessel left open
Procedure: as §5, §1, §2, §6, §3, §4, §7
The hygrostability of the ethanolamine salt (1), tromethamine salt (2), choline salt (3) and potassium salt (4) of 3-{[((2E)-2-{1-[5-(4-t-butylphenyl)-4-hydroxy-3-thienyl]ethylidene}hydrazino)carbonothioyl]amino}benzoic acid was evaluated as follows.
About 1 g of each sample was put in a transparent glass vessel and maintained at 25° C./90% RH (relative humidity) for 2 weeks with the vessel left open. After 2 weeks, the sample was withdrawn, and the related substance increase (%), weight change (%) and TG loss change (%) were evaluated.

Thermal stability test = assay type: physicochemical; settings: 60° C. for 2 weeks without humidity control, brown glass vessel
Procedure: as §5, §1, §2
The thermal stability of the ethanolamine salt (1), tromethamine salt (2), choline salt (3) and potassium salt (4) of 3-{[((2E)-2-{1-[5-(4-t-butylphenyl)-4-hydroxy-3-thienyl]ethylidene}hydrazino)carbonothioyl]amino}benzoic acid was evaluated as follows.
Each sample was put in a brown glass vessel, and the vessel was left at 60° C. for 2 weeks without humidity control. After 2 weeks, the sample was withdrawn, and the related substance increase (%) was evaluated.

[2] = Oral absorption test on dogs; assay type: in vivo; settings: beagle dogs, oral capsule, 360 mg/dog; ratio to Compound A (free form)
Procedure: Oral Absorption Test on Dogs
The free form (Compound A), potassium salt, organic amine salts (ethanolamine salt and tromethamine salt) and salt of quaternary ammonium ion (choline salt) of 3-{[((2E)-2-{1-[5-(4-t-butylphenyl)-4-hydroxy-3-thienyl]ethylidene}hydrazino)carbonothioyl]amino}benzoic acid in capsule were orally administered to beagle dogs at a dose of 360 mg/dog. 0.5, 1, 2, 4, 6, 8 and 24 hours after the administration, blood was collected to obtain plasma samples. Their concentrations in dog plasma were measured by LC/MS/MS. Using the plasma concentrations obtained, maximum plasma concentration (Cmax), time to maximum plasma concentration (Tmax) and area under the plasma concentration-time curve were calculated.
In FIG. 1, * represents Compound A (Free Acid), ♦ represents the potassium salt (Potassium Salt), □ represents the choline salt (Choline Salt), ▴ represents ethanolamine (Ethanolamine Salt), and ◯ represents the tromethamine salt (Tromethamine Salt).

Row | SMILES | Related substances (%) [1] | TG loss (%) [1] | Related substance increase (Photostability test) | TG loss change (Photostability test) | Weight change (Photostability test) | Related substance increase (Hygrostability test) | TG loss change (Hygrostability test) | Weight change (Hygrostability test) | Related substance increase (Thermal stability test) | area under the plasma concentration-time curve (AUC), times better than Compound A [2] | maximum plasma concentration (Cmax), times better than Compound A [2]
1 | C/C(=N\NC(=S)Nc1cccc(C(=O)O)c1)c1csc(-c2ccc(C(C)(C)C)cc2)c1O.NCCO [(1), Ethanolamine salt of 3-{[((2E)-2-{1-[5-(4-t-butylphenyl)-4-hydroxy-3-thienyl]ethylidene}hydrazino)carbonothioyl]amino}benzoic acid] | 0.34% | 0.64% | −0.01% | −0.25% | 0.23% | 0.04% | −0.26% | 0.29% | 0.16% | – | –
2 | C/C(=N\NC(=S)Nc1cccc(C(=O)O)c1)c1csc(-c2ccc(C(C)(C)C)cc2)c1O.NC(CO)(CO)CO [(2), Tromethamine salt of 3-{[((2E)-2-{1-[5-(4-t-butylphenyl)-4-hydroxy-3-thienyl]ethylidene}hydrazino)carbonothioyl]amino}benzoic acid] | 0.07% | 0.11% | 0.01% | −0.13% | 0.01% | −0.03% | −0.13% | 0.00% | −0.01% | – | –
3 | C/C(=N\NC(=S)Nc1cccc(C(=O)[O-])c1)c1csc(-c2ccc(C(C)(C)C)cc2)c1O.C[N+](C)(C)CCO [(3), Choline salt of 3-{[((2E)-2-{1-[5-(4-t-butylphenyl)-4-hydroxy-3-thienyl]ethylidene}hydrazino)carbonothioyl]amino}benzoic acid] | 0.34% | 1.19% | 0.00% | 0.58% | 0.17% | −0.01% | 0.66% | 0.10% | −0.01% | – | –
4 | C/C(=N\NC(=S)Nc1cccc(C(=O)[O-])c1)c1csc(-c2ccc(C(C)(C)C)cc2)c1O.[K+] [(4), Potassium 3-{[((2E)-2-{1-[5-(4-t-butylphenyl)-4-hydroxy-3-thienyl]ethylidene}hydrazine)carbonothioyl]amino}benzoate, reference compound] | 1.86% | 3.18% | 0.27% | 3.16% | 9.36% | 0.39% | 7.86% | 23.22% | 2.46% | 6.3 times | 7.2 times
